How the values were obtained:
[1] = tested on: HT-29; assay: CCK-8 cell viability assay, HT-29; type: cell-based; conditions: Homo sapiens, Figure 2A
Description: (§1) Human cancer cell lines (PC3, DU145, A549, H1299, MDA-MB-231, HepG2, PANC-1, MIA PaCa-2, HT-29, HCT116, and HeLa) were obtained from the Cell Resource Center, Peking Union Medical College (National Infrastructure of Cell Line Resource, NSTI). These cell lines were cultured according to NSTI culture guidelines and cultured in RPMI 1640 medium (Biological Industries, Israel) supplemented with 10% heat-inactivated fetal bovine serum (FBS; BI; Israel), penicillin/streptomycin (P/S; 100 IU/ml; Gibco, 10378016) in an incubator at 37 °C and 5% CO2.
(§2) Cell cytotoxicity assays were performed in 96-well plates (NEST) to determine the growth kinetics of SeSA-DCA-treated cells using CCK-8 reagent (Shandong Sparkjade Biotechnology Co., Ltd., CT0001-B). Cells (5000 cells/well) were treated with DMSO or different drugs. Each treatment was performed in five replicates. To assess cell growth, 10 μL of CCK-8 reagent was introduced to every well and allowed to incubate for 4 h. Following that, the absorbance value for each well was measured at 450 nm. Every experiment was duplicated no less than thrice.

[2] = tested on: PC3 cells; assay: CCK-8 cell viability assay, PC3; type: cell-based; conditions: Homo sapiens, PC-3, Figure 2B and text
Description: as §1, §2

[3] = Drug toxicity test: blood biochemistry in nude mice; type: in vivo; design: TBIL / BUN: unit not given here; conditions: serum of nude mice; for ALT: dose (DCA 100, SAHA 20, SeSAHA 20, Docetaxel 10, SeSA-DCA 20 mg/kg); for ALT / ALP / AST: in U/L (unit assumed); for ALB / GLOB / TP: in g/L (unit assumed)
Description: Blood samples from each mouse were kept at room temperature for 3 h and centrifuged at 8000 rpm for 15 min to produce serum. The samples were then placed on the blood routine detector for biochemical analysis.

[4] = tested on: PC3 cells; assay: RNA-sequencing and GSEA of treated PC3 cells; type: cell-based, Human; conditions: 48 h
Description: PC3 cells were seeded at a density of 5 × 10^6 cells/flask in two 75 cm^2 flasks. Treatment with drugs for 48 h was performed in one flask, whereas the other was used as a control. Total RNA was isolated using TRIZOL, and the total RNA was extracted from the sample with RNA extraction kit (Accurate Biotechnology (Hunan) Co., Ltd. ChangSha, China). DNA was digested with DNase (GenScript, E00053). Magnetic beads with Oligo (dT) were used to enrich eukaryotic mRNA, and cDNA library construction and sequencing were performed on the Illumina HiSeq Xten platform. After quality inspection, raw data (raw reads) were processed using Trimmomatic. Reads containing ploy-N and low-quality reads were removed to obtain clean reads. The clean reads were then mapped to the reference genome using HISAT2. The FPKM value of each gene was calculated using cufflinks, and the read counts of each gene were obtained by htseq-count. DEGs were identified using DESeq. […] Hierarchical cluster analysis of DEGs was performed to explore the gene expression patterns. KEGG pathway enrichment analysis and PPI and IPA analyses of the DEGs were performed.
GSEA was conducted using GSEA software.

[5] = tested on: HDAC; assay: Inhibitory activity of SeSAHA compared with SAHA (data not shown); conditions: preliminary results
[6] = versus DMSO, adjusted p-value < 0.05, |log2foldchange| > 1

| SMILES | IC50 [1] | IC50 [2] | A/G [3] | BUN [3] | TBIL [3] | ALT [3] | ALP [3] | AST [3] | ALB [3] | GLOB [3] | TP [3] | changes in gene expression compared with DMSO [4] | downregulated transcripts/genes [4, 6] | upregulated transcripts/genes [4, 6] | inhibitory effect relative to SAHA [5] |
| --- | --- | --- | --- | --- | --- | --- | --- | --- | --- | --- | --- | --- | --- | --- | --- |
| O=C(CCCCCC[Se][Se]CCCCCCC(=O)Nc1cccc(COC(=O)C(Cl)Cl)c1)Nc1cccc(COC(=O)C(Cl)Cl)c1 | 8.71 µM | – | – | – | – | – | – | – | – | – | – | – | – | – | – |
| O=C(O)C(Cl)Cl [DCA, Dichloroacetate] | – | > 18000 µM | 0.36 ± 0.02 | 10.5 ± 0.88 | 0.49 ± 0.06 | 37.5 ± 4.5 | 36.2 ± 3.6 | 223.4 ± 35 | 13.45 ± 0.18 | 37.1 ± 0.22 | 51.5 ± 0.45 | minimal changes | – | – | – |
| CC(=O)O[C@@]12CO[C@@H]1C[C@H](O)[C@@]1(C)C(=O)[C@H](O)C3=C(C)[C@@H](OC(=O)[C@H](O)[C@@H](NC(=O)OC(C)(C)C)c4ccccc4)C[C@@](O)([C@@H](OC(=O)c4ccccc4)[C@H]21)C3(C)C [Docetaxel, docetaxel] | – | – | 0.38 ± 0.04 | 9.8 ± 0.8 | 0.7 ± 0.07 | 46.4 ± 5.7 | 34.2 ± 8.2 | 251.8 ± 48.3 | 14.6 ± 0.6 | 38.3 ± 3.1 | 52.8 ± 4.1 | – | – | – | – |
| O=C(CCCCCCC(=O)Nc1ccccc1)NO [SAHA, suberoylanilide hydroxamic acid] | – | – | – | 7.9 ± 1.5 | 0.8 ± 0.17 | 53.5 ± 5.5 | 34.3 ± 3.3 | 285.3 ± 40.6 | 15.8 ± 0.6 | 35.9 ± 3.6 | 51.7 ± 2.5 | – | 1573 | 2,024 | – |
| O=C(CCCCCC[Se][Se]CCCCCCC(=O)Nc1cccc(CO)c1)Nc1cccc(CO)c1 [SeSAHA] | – | > 1.8 µM | 0.4 ± 0.07 | 6.7 ± 0.7 | 0.6 ± 0.07 | 49.3 ± 6.7 | 36.5 ± 4.3 | 235.5 ± 40.3 | 15.4 ± 2.1 | 38.4 ± 1.1 | 53.7 ± 0.3 | – | – | – | more than 10 fold |

Source: article PMC11209715, “A novel selenium analog of HDACi-based twin drug induces apoptosis and cell cycle arrest via CDC25A to improve prostate cancer therapy” (Theranostics, 2024)
